Values of other authors, collected in Sander's compilation of Henry's law constants (doi:10.1021/es00169a013).

Assay: Henry solubility constant Hcp at 298.15 K (mol/(m3 Pa))
Details: reference: Dunnivant et al. (1988); cited value

Going from Clc1cc(Cl)c(-c2cc(Cl)c(Cl)cc2Cl)cc1Cl [2,2',4,4',5,5'-hexachlorobiphenyl] to Clc1cc(Cl)c(-c2c(Cl)cc(Cl)cc2Cl)c(Cl)c1 [2,2',4,4',6,6'-hexachlorobiphenyl], the “Henry solubility constant Hcp” value rises from 0.08 to 0.086.

Compared with Clc1cccc(Cl)c1-c1c(Cl)cccc1Cl [2,2',6,6'-tetrachlorobiphenyl], Clc1ccc(-c2ccc(Cl)cc2)cc1 [4,4'-dichlorobiphenyl] is higher in “Henry solubility constant Hcp” value: 0.067 for the first, 0.068 for the second.
